According to ChEMBL document CHEMBL1150630, “Oxidation, reduction, and methylation of carnosic acid by Nocardia” (J Nat Prod, 2002):

Tested on: Radical scavenging activity
Experiment: Antioxidant activity assessed as DPPH free radical scavenging activity after 30 mins
Type: functional

Row | SMILES | IC50 [µM]
1 | COc1c(C(C)C)cc2c(c1O)[C@@]1(CO)CCCC(C)(C)[C@@H]1CC2 | 83.4
2 | CC(C)c1cc2c(c(O)c1O)[C@@]1(C(=O)O)CCCC(C)(C)[C@@H]1CC2 [CARNOSIC ACID] | 53.3
3 | CC(C)c1cc2c(c(O)c1O)[C@@]13CCCC(C)(C)[C@@H]1C[C@@H]2OC3=O [CARNOSOL] | 114

The remaining lines, values ahead:

Row | IC50 [µM] | SMILES
4 | 66 | CC1(C)CCC[C@@]23C(=O)OC(C[C@@H]12)c1cc(C(CO)CO)c(O)c(O)c13
5 | 66.8 | O=C1O[C@H]([C@@H](O)CO)C(O)=C1O [ASCORBIC ACID]
6 | 46.1 | CCCOC(=O)c1cc(O)c(O)c(O)c1 [PROPYL GALLATE]
7 | 37.8 | Oc1cccc(O)c1O [PYROGALLOL]
